Patent publication US10350284B1, “Antigen specific multi epitope-based anti-infective vaccines” (priority 2009, dated 2019)
Several values for one entry are separate records, joined by “and”; a condition that tells them apart may be missing. Equal entries are not always repeated. Where two headings read alike, the source gives them in different places.

What was measured:
Format in all cases: cell-based, human
[1] = system: autologous macrophages infected with live Mtb; settings: peptide-induced T cell lines from naïve donors and TB patients, FIG. 12; in words
[2] = system: PBMC derived from naïve donors; assay: Cytokine secretion (quantitative ELISA) by PBMC from naïve donors; settings: for donors with positive (x>0.1 ng/ml) IL-4 secretion / donors with positive (x>0.1 ng/ml) IL-12 secretion / donors with positive (x>0.1 ng/ml) IL-2 secretion: 48 hrs stimulation, FIG. 7A
[3] = system: anti-VXL VCs T cell lines from naïve donors; assay: FACS phenotype of anti-VXL T cell lines (CD44high, CD62Lhigh); settings: FIG. 14; for CD44high activated effector cells in CD8+ / CD62Lhigh memory cells in CD8+: after the 3rd stimulation; for CD44high activated effector cells in CD4+ / CD62Lhigh memory cells in CD4+: already after the 1st stimulation
[4] = system: anti-VXL effector T-cell lines; assay: IFN-gamma released by effector T cell lines during the lysis process (ELISA)
[5] = system: naïve peripheral blood mononuclear cells (PBMC); assay: Proliferation ([3H] Thymidine) of PBMC from naïve donors stimulated with VXL tuberculosis vaccine candidates; settings: for proliferation in donors which also manifested response to PPD: PPD positive (SI≥2) naïve PBMC, FIG. 3B; for proliferation in donors which also manifested response to PPD / positive proliferation in donors which also manifested response to TT / SI and coverage in the total 11 donors / proliferation in PPD positive versus PPD negative donors: in words; for positive proliferation in donors which also manifested response to TT: TT positive (SI≥2) naïve PBMC, FIG. 3A; for SI and coverage in the total 11 donors: in comparison with the positive controls; for proliferation in PPD positive versus PPD negative donors: naïve PBMC, FIG. 4
[6] = system: autologous macrophages loaded with VXL VCs; assay: Cytotoxic activity of VXL-induced T cell lines against loaded autologous macrophages (35S Methionine); settings: T cell line induced by the peptide; in words
[7] = system: anti-VXL T cell lines after the 3rd stimulation; assay: Intra-cellular staining (ICS) FACS for IFN-gamma and IL-4 in T cell lines; settings: 6 h stimulation with peptide-loaded autologous macrophages, FIG. 15
[8] = donor #15 (FIG. 12B), naïve donor T cell line
[9] = patient #18 (FIG. 12D), Mtb patient T cell line

Sequence | lysis of Mtb infected macrophages [1] | donors with positive (x>0.1 ng/ml) IL-4 secretion [2] | IL-4 secretion ([2]; in words) | CD44high activated effector cells in CD8+ [3] | CD62Lhigh memory cells in CD8+ [3] | CD44high activated effector cells in CD4+ [3] | CD62Lhigh memory cells in CD4+ [3] | IFN-gamma detected [4] | IFN-gamma detected [4, 8] | proliferation in donors which also manifested response to PPD [5] | positive proliferation in donors which also manifested response to TT [5] | SI and coverage in the total 11 donors [5] | proliferation in PPD positive versus PPD negative donors [5] | donors with positive (x>0.1 ng/ml) IL-12 secretion [2] | lysis against PPD-loaded targets [6] | maximal percentage of specific IFN-gamma produced by CD8+ T-cells [7] | IFN-gamma detected [4, 9] | average SI [5] | average SI ([5]; pure (>90%) peptide, naïve donors, FIG. 9A) | donors with positive (x>0.1 ng/ml) IL-2 secretion [2]
MRFAQPSALSRFSALTRDWFTSTFAAPTAAQA (listed as Mycobacterium tuberculosis) [VXL208, signal peptide of ATP dependent helicase putative, Tuberculosis] | lower lysis levels | 25% | some secretion of IL-4 | 50.2% | 32.1% | 52% | 22% | 2.6 µg/mL | 3.6 µg/mL | stronger | more positive | highest SI and widest coverage | even stronger in donors with previous exposure to the tuberculosis Bactria | – | – | – | – | – | – | –
MAAMWRRRPLSSALLSFGLLLGGLPLAAPPLAGA (listed as Mycobacterium tuberculosis) [VXL207, signal peptide of Protease, Tuberculosis] | – | 25% | – | – | – | – | – | – | – | – | – | – | – | 8.6% | – | – | – | – | – | –
MRPSRYAPLLCAMVLALAWLSAVAG (listed as Mycobacterium tuberculosis) [VXL214, signal peptide of Putative lipoprotein IpqV precursor, Tuberculosis] | – | – | – | – | – | – | – | – | – | – | to some extent | – | – | – | – | – | – | – | – | –
MKRGLTVAVAGAAILVAGLSGCSS [VXL203] | high and specific lysis | – | – | 79% | 17% | – | 39% | – | 3.8 µg/mL | – | to some extent | to some extent | more potent in donors which were not exposed in the past to the tuberculosis Bactria | 8.6% | specific lysis | 8.2% | 11 µg/mL | 1.8+/−0.8 | 5.7+/−6.8 | –
MLVLLVAVLVTAVYAFVHA (listed as Mycobacterium tuberculosis) [VXL211, signal peptide of Uncharacterized protein Rv0476/MT04941 precursor, Tuberculosis] | moderate lysis | – | – | 80% | 40.9% | 41% | – | 9.2 µg/mL and 7.8 µg/mL | 5.9 µg/mL | stronger | more positive | highest SI and widest coverage | even stronger in donors with previous exposure to the tuberculosis Bactria | 58.3% | specific lysis | 10.6% | – | – | – | 91.6%
MKIRLHTLLAVLTAAPLLLAAAGCGS [VXL200] | – | – | – | – | – | – | – | – | – | stronger | to some extent | – | – | – | – | – | – | – | – | 25%
MKTGTATTRRRLLAVLIALALPGAAVA (listed as Mycobacterium tuberculosis) [VXL206, signal peptide of Hypothetical protein MT0 213, Tuberculosis] | – | – | – | – | – | – | – | – | – | – | – | – | – | 8.6% | – | – | – | – | – | –
MTDVSRKIRAWGRRLMIGTAAAVVLPGLVGLAGGAATAGA (listed as Mycobacterium tuberculosis) [VXL201, signal peptide of Antigen 85B, Tuberculosis] | high and specific lysis | – | – | – | – | – | – | 6 µg/mL and 10 µg/mL and 11.3 µg/mL | – | stronger | more positive | highest SI and widest coverage | even stronger in donors with previous exposure to the tuberculosis Bactria | – | – | – | 14 µg/mL | – | – | –
MLLRKGTVYVLVIRADLVNAMVAHA (listed as Mycobacterium tuberculosis) [VXL212, signal peptide of Uncharacterized protein Rv1334/MT1376 precursor, Tuberculosis] | lower lysis levels | – | – | – | – | – | – | 5.6 µg/mL and 3.6 µg/mL | – | stronger | more positive | highest SI and widest coverage | even stronger in donors with previous exposure to the tuberculosis Bactria | 58.3% | – | – | 7.5 µg/mL | – | – | –
